Key:
DSS-induced colitis = test: Acute DSS-induced colitis in mice: DAI, body weight, stools, colon length and weight, tolerability; type: in vivo, C57BL/6 mice; details: for DAI (table title: DAT Time Course Data): DSS days 7-13; for mice with weight loss: weight loss defined as >1%
Protocol: Mice were dosed once daily for a period of 13 days by oro-gastric gavage with a 20 gauge, one-inch long needle (Popper & Sons, New Hyde Park, N.Y.). Dosages comprised either 40 mg/kg dose of metronidazole or 5×10^9 CFU/ml probiotic solution. A 0.6% saline solution was administered as a control.
Disease Activity Indices (DAIs) were determined either daily or on alternate days, by evaluation of stool consistency and occult blood in the stool and weight loss on a standardized severity scale, as shown in Table 1 (Murthy, 1993).
Disease Activity Index (DAI) Calculation: The individual scores for weight loss, stool consistency, and occult blood/bleeding are determined, and divided by 3 to determine a mean DAI for the mouse. For example, if an animal lost 12% of the initial body weight [score=3], had evidence of diarrhea [score=4], and evidence of gross rectal bleeding [score=4], the mean DAI would be 3±4±4=11/3=3.7
In Example 3, weight loss was not very evident in the DSS-treated mice. Therefore, a modified DAI calculation was used. The modfied DAIs were calculated similarly to the DAIs of Table 1, but only the stool consistency and occult blood components were used for this determination.
Colitis was then induced by providing the mice with a solution of 2% DSS (w/v) dissolved in the filtered water for days 7 to 13 of the study. One group of mice received water without DSS. Water consumption and body weight were recorded throughout the study.
(§1) On day 13 of the study, animals were euthanized by exposure to carbon dioxide. The colon was rapidly removed and the total colon length was determined to the nearest 0.1 cm. Typically, a 2.5 cm segment of distal colon was fixed in 10% buffered formalin, for a subsequent histological evaluation (see below). The adjacent 2.5 cm segment of colon was weighed and then frozen in liquid nitrogen. This segment of colon was used for the evaluation of colonic MPO, as well as colonic cytokine levels.
Control mice received 0.6% saline.

colonic MPO = test: Colonic myeloperoxidase (TMB method) in DSS colitis; type: in vivo, C57BL/6 mice; details: day 13, M-17 5×10^9 CFU/ml, metronidazole 40 mg/kg
Protocol: as §1
The 2.5 segment of colon was homogenized for about 30 seconds in 0.5 ml of molecular biology grade distilled water, using a hand-held tissue homogenizer (TissueMiser) from Fisher Scientific (Pittsburgh, Pa.). The homogenate was then centrifuged at 10,000 RPM at 4° C. for 15 minutes. The pellet was resuspended in hexadecyltrimethylammonium bromide (HTAB) buffer (pH 6.0), for the measurement of colonic MPO. MPO was assayed by the tetramethylbenzidine (TMB) method (Fitzpatrick, 2000).

IL-1β = test: Colonic cytokine ELISA in DSS colitis: IL-1β; type: in vivo, C57BL/6 mice; details: day 13, M-17 5×10^9 CFU/ml, metronidazole 40 mg/kg
Protocol: as §1
(§2) The supernatant fraction from the colonic homogenate (see above) was aliquoted into appropriate test tubes and frozen at −70° C. Subsequently, the supernatants were used to measure relevant pro-inflammatory cytokines [e.g., IFN-γ, IL-1β, TNF-α, IL-12] using commercially available mouse ELISA kits (Fitzpatrick 2000). The data was typically expressed as pg/2.5 cm of colon.

IFN-γ = test: Colonic cytokine ELISA in DSS colitis: IFN-γ; type: in vivo, C57BL/6 mice; details: day 13, M-17 5×10^9 CFU/ml, metronidazole 40 mg/kg
Protocol: as §1, §2

IL-12 = test: Colonic cytokine ELISA in DSS colitis: IL-12; type: in vivo, C57BL/6 mice; details: day 13, M-17 5×10^9 CFU/ml, metronidazole 40 mg/kg
Protocol: as §1, §2

IL-6 = test: Colonic cytokine ELISA in DSS colitis: IL-6; type: in vivo, C57BL/6 mice; details: day 13, M-17 5×10^9 CFU/ml, metronidazole 40 mg/kg
Protocol: as §1, §2

IL-10 = test: Colonic cytokine ELISA in DSS colitis: IL-10; type: in vivo, C57BL/6 mice; details: day 13, M-17 5×10^9 CFU/ml, metronidazole 40 mg/kg
Protocol: as §1, §2

[1] = tested on: distal colon histological damage; test: Colonic histology score in DSS colitis; type: in vivo, C57BL/6 mice; details: day 13, M-17 5×10^9 CFU/ml, metronidazole 40 mg/kg
Protocol: Distal colonic specimens were processed by standard methods and embedded in paraffin by the Histology core facility at the Penn State University College of Medicine. Microscope slides were coded. Using coded hematoxylin-eosin H&E slides (1 slide per mouse) from the distal colon, colonic histology scores were determined from six different areas on the slide (Williams, 2001; Krieglstein, 2001). A mean total histology score value was calculated for each mouse.
Total Histology Scores were determined by multiplying the percent involvement for each of the 3 different histological features by the area of involvement. Using this scoring system, the minimal score=0 and the maximal score=40. The percent involvement was determined with a 25 mm ocular grid attached to an Olympus CH light microscope. The histological evaluation was performed at a 400× magnification.

[2] = tested on: individual isolates of the aerobic and facultative gram positive and gram negative flora; test: Metronidazole ex vivo on fecal isolates; type: cell-based; details: ex vivo at 50 μg/ml
E. coli ATCC 202226 = test: Kirby-Bauer disc diffusion; type: cell-based, Escherichia coli; details: 50 μg metronidazole paper disc, Mueller-Hinton Agar, overnight
Protocol: The Kirby-Bauer disc diffusion method was used to determine the relative sensitivity of E. coli ATCC 202226 to metronidazole (Bauer, 1966). Five colonies of E. coli ATCC 202226 were picked from trypticase soy agar (TSA) using a sterile inoculation loop and suspended in trypticase soy broth (TSB). The TSB culture was grown for 6 hours at 37° C./200 rpm. This culture was diluted in TSB to match a 0.5 McFarland turbidity standard prior to saturating a sterile cotton swab and streaking the culture onto the surface of a Mueller-Hinton Agar plate. After allowing the surface of the plate to dry, a 50 μg metronidazole paper disc (Oxoid) was placed on the lawn. The plate was incubated overnight and the zone of inhibition was recorded.

TNF-α, IL-1β and IL-6 = test: RAW 264.7 macrophages: cytokine secretion, cytokines not told apart; type: cell-based, mouse; details: metronidazole 50 μg/ml; heat-killed M-17 1×10^8 CFU/ml; conditioned media 10% (v/v)
Protocol: The RAW 264.7 mouse macrophage cell line was obtained from American Type Culture Collection (ATCC). RAW 264.7 cells were grown in Dulbecco's Modified Eagle's Medium (DMEM) containing 10% FBS (Fetal Bovine Serum). The lipopolysaccharide (LPS) stimulation studies were conducted at a cell density of 2×10^6/ml. […] For the NF-κB p65 measurement, nuclear extracts were obtained from cells either immediately (0 hours) or 3 hours after LPS-stimulation. A protein determination of the nuclear extracts was done with the Bio-Rad protein assay (Bio-Rad Laboratories). For the p65 analysis, 10 μg of protein was utilized per sample. The nuclear binding of p65 was measured with the TransAM™ NF-κB p65 assay kit, according to the manufacturer's instructions.
For the cytokine secretion experiments, after 0 or 4 hours of LPS exposure, the culture medium was collected for the measurement of cytokines (TNF-α, IL-1β and IL-6) by ELISA (Pierce-Endogen), according to the manufacturer's directions. […] The media was then collected and centrifuged at 10,000 RPM for 10 minutes. Next, the CM was passed through a 0.22 micron filter prior to use in cytokine secretion experiments. […] The pellet was then resuspended in a sufficient quantity of saline to achieve a final concentration of 1×10^8 CFU/ml. […] In some experiments, we also evaluated whether metronidazole ([…]) could inhibit cytokine secretion.

[3] = after single, intravenous infusion; cited from earlier work
[4] = day 13, M-17 5×10^9 CFU/ml, metronidazole 40 mg/kg, DSS

## Cc1ncc([N+](=O)[O-])n1CCO [metronidazole, 1-(beta-hydroxyethyl)-2-methyl-5-nitroimidazole]
DSS-induced colitis; day 13, M-17 5×10^9 CFU/ml, metronidazole 40 mg/kg
  reduction in mean DAI score compared with DSS-treated mice that received vehicle: 47.4%
DSS-induced colitis; [4]
  Colon length: 6.8±0.2 cm
  Colon wt.: 70 ± 3 mg/2.5 cm
DSS-induced colitis; day 13, M-17 5×10^9 CFU/ml, metronidazole 40 mg/kg, DSS, listed as Metro
  Colon length: 6.8 ± 0.2 cm
DSS-induced colitis; day 13, stool consistency and occult blood only, M-17 5×10^9 CFU/ml, metronidazole 40 mg/kg
  Modified DAI (0-4): 1.0 ± 0.2
DSS-induced colitis; study day 0, M-17 5×10^9 CFU/ml, metronidazole 40 mg/kg
  DAI (table title: DAT Time Course Data): 0 ± 0
DSS-induced colitis; study day 2, M-17 5×10^9 CFU/ml, metronidazole 40 mg/kg
  DAI (table title: DAT Time Course Data): 0 ± 0
DSS-induced colitis; study day 4, M-17 5×10^9 CFU/ml, metronidazole 40 mg/kg
  DAI (table title: DAT Time Course Data): 0.3 ± 0.2
DSS-induced colitis; study day 6, M-17 5×10^9 CFU/ml, metronidazole 40 mg/kg
  DAI (table title: DAT Time Course Data): 0.2 ± 0.1
DSS-induced colitis; study day 8, M-17 5×10^9 CFU/ml, metronidazole 40 mg/kg
  DAI (table title: DAT Time Course Data): 0.1 ± 0.1
DSS-induced colitis; study day 10, M-17 5×10^9 CFU/ml, metronidazole 40 mg/kg
  DAI (table title: DAT Time Course Data): 0.7 ± 0.2
DSS-induced colitis; study day 12, M-17 5×10^9 CFU/ml, metronidazole 40 mg/kg
  DAI (table title: DAT Time Course Data): 0.6 ± 0.2\
DSS-induced colitis; study day 13, M-17 5×10^9 CFU/ml, metronidazole 40 mg/kg
  DAI (table title: DAT Time Course Data): 1.0 ± 0.2\
DSS-induced colitis; DSS-phase (days 7-13)
  mice with weight loss: 30%
DSS-induced colitis; figures given before those of the DSS-phase
  mice with weight loss: 50%
Colonic MPO
  MPO: 4.3 ± 1.0 U/2.5 cm
IL-1β
  IL-1β: 359 ± 85 pg/2.5 cm
IFN-γ
  IFN-γ: 56 ± 28 pg/2.5 cm
IL-12
  IL-12: 32 ± 2 pg/2.5 cm
IL-6
  IL-6: 372 ± 75 pg/2.5 cm
IL-10
  IL-10: 91 ± 7 pg/2.5 cm
[1]
  Histology Score (0-40): 12.4 ± 0.9
[2]
  inhibition of individual isolates: did not inhibit
E. coli ATCC 202226
  zone of inhibition: No zone of inhibition
TNF-α, IL-1β and IL-6
  LPS-stimulated cytokine secretion: did not reduce
[3]
  half-life: 7.3 ± 1.0 h
